Biological target: PKBα (Homo sapiens, UniProt P31749)
Assay: PKB kinase assay (P33-labeled ATP, peptide substrate, filter plate)
Assay type: biochemical
Conditions: PKBα enzyme (full length or kinase domain with pleckstrin domain deleted)
Description: The kinase assay for evaluating PKB activity comprises active PKB enzymes, a PKB specific substrate, and P^33-labeled ATP. […] The phosphorylated substrate was captured by a phosphocellulose membrane filter plate (MLLIPORE) and measured by a Wallac Microbeta liquid scintillation counter (Perkin Elmer).

PKBα, sequence (P31749 118-480 limits assumed): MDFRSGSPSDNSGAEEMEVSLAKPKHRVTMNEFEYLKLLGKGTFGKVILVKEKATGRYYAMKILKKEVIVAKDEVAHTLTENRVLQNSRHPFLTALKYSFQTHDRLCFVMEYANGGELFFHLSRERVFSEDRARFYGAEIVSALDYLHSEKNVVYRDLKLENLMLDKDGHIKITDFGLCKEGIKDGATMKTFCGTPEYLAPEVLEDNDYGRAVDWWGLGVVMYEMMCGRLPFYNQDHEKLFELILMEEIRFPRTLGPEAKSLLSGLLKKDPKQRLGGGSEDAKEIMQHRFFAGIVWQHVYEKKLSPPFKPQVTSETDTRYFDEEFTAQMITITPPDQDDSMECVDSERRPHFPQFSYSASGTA

`N[C@H](CNc1ncc(-c2ccc3[nH]ncc3c2)s1)Cc1ccc(Cl)cc1` [Example 4, N—((S)-2-amino-3-(4-chlorophenyl)propyl)-5-(1H-indazol-5-yl)thiazol-2-amine] and `COc1cc(C[C@H](N)CNc2ncc(-c3ccc4cnccc4c3)s2)cnc1C(F)(F)F` [Example 173] cannot be ordered by IC50: < 50 nM for the first, < 50 nM for the second.

Compared with `N[C@H](CNc1ncc(-c2ccc3[nH]c(=O)oc3c2)s1)Cc1c[nH]c2ccccc12` [Example 39, 6-(2-((S)-2-amino-3-(1H-indol-3-yl)propylamino)thiazol-5-yl)benzo[d]oxazol-2(3H)-one], `N[C@H](CNc1ncc(-c2ccc3c(c2F)CC(=O)N3)s1)Cc1ccc(C(F)(F)F)cc1` [Example 224, 5-(2-((S)-2-amino-3-(4-(trifluoromethyl)phenyl)propylamino)thiazol-5-yl)-4-fluoroindolin-2-one] is lower in IC50: 50 to 1000 nM for the first, < 50 nM for the second.

`COC(C)c1nc(NC[C@@H](N)Cc2ccc(C(F)(F)F)cc2)sc1-c1ccc2cnccc2c1` (stereo partly drawn) [Example 16, N—((S)-2-amino-3-(4-(trifluoromethyl)phenyl)propyl)-5-(isoquinolin-6-yl)-4-(1-methoxyethyl)thiazol-2-amine] and `CN(C)C(=O)c1nc(NC[C@@H](N)Cc2ccc(C(F)(F)F)cc2)sc1-c1ccc2cnccc2c1` [Example 194, 2-((S)-2-amino-3-(4-(trifluoromethyl)phenyl)propylamino)-5-(isoquinolin-6-yl)-N,N-dimethylthiazole-4-carboxamide] fall in the same range of IC50: 50 to 1000 nM for the first, 50 to 1000 nM for the second.

First: N[C@H](CNc1nc(C#CCO)c(-c2ccc3c(c2)CC(=O)N3)s1)Cc1ccc(C(F)(F)F)cc1 [Example 145, 5-(2-((S)-2-amino-3-(4-(trifluoromethyl)phenyl)propylamino)-4-(3-hydroxyprop-1-ynyl)thiazol-5-yl)indolin-2-one]
Second: N#Cc1nc(NC[C@@H](N)Cc2ccc(C(F)(F)F)cc2)sc1-c1ccc2c(c1)CC(=O)N2 [Example 61, 2-((S)-2-amino-3-(4-(trifluoromethyl)phenyl)propylamino)-5-(2-oxoindolin-5-yl)thiazole-4-carbonitrile]
The IC50 of the first is lower: < 50 nM for the first, 1000 to 10000 nM for the second.

`CC#Cc1nc(NC[C@@H](N)Cc2ccc(C(F)(F)F)cc2)sc1-c1ccc2[nH]nc(C)c2c1` [Example 153, N—((S)-2-amino-3-(4-(trifluoromethyl)phenyl)propyl)-5-(3-methyl-1H-indazol-5-yl)-4-(prop-1-ynyl)thiazol-2-amine] and `CNC(=O)c1nc(NC[C@@H](N)Cc2ccc(C(F)(F)F)cc2)sc1-c1ccc2cnccc2c1` [Example 120, 2-((S)-2-amino-3-(4-(trifluoromethyl)phenyl)-propylamino)-5-(isoquinolin-6-yl)-N-methylthiazole-4-carboxamide] cannot be ordered by IC50: < 50 nM for the first, < 50 nM for the second.

First: N[C@H](CNc1nc(-c2ccc(F)c(F)c2)c(-c2ccc3cnccc3c2)s1)Cc1ccc(C(F)(F)F)cc1 [Example 101, N—((S)-2-Amino-3-(4-(trifluoromethyl)phenyl)propyl)-4-(3,4-difluorophenyl)-5-(isoquinolin-6-yl)thiazol-2-amine]
Second: Cn1c(=O)[nH]c2ccc(-c3sc(NC[C@@H](N)Cc4ccc(C(F)(F)F)cc4)nc3-c3ccccc3F)cc21 [Example 249, 6-(2-((S)-2-amino-3-(4-(trifluoromethyl)phenyl)propylamino)-4-(2-fluorophenyl)thiazol-5-yl)-1-methyl-1H-benzo[d]imidazol-2(3H)-one]
The IC50 of the first is lower: 50 to 1000 nM for the first, 1000 to 10000 nM for the second. The first is the more potent here.

First: N[C@H](CNc1nc(COCC(F)(F)F)c(-c2nc3ccncc3s2)s1)Cc1cccc(Cl)c1 [Example 20, N—((S)-2-amino-3-(3-chlorophenyl)propyl)-5-(thiazolo[5,4-c]pyridin-2-yl)-4-((2,2,2-trifluoroethoxy)methyl)thiazol-2-amine]
Second: COCc1nc(NC[C@@H](N)Cc2ccc(C(F)(F)F)cc2)sc1-c1nc2ccncc2s1 [Example 22, N—((S)-2-amino-3-(4-(trifluoromethyl)phenyl)propyl)-4-(methoxymethyl)-5-(thiazolo[5,4-c]pyridin-2-yl)thiazol-2-amine]
The IC50 of the first is higher: 1000 to 10000 nM for the first, < 50 nM for the second. The second is the more potent here.

From patent US8084479B2, “Thiazole compounds and methods of use” (Amgen Inc., priority 2006, dated 2011)
